biological target: T1, Human Factor D (Homo sapiens, UniProt P00746); test: Human Factor D assay (Z-L-Lys-SBzl/DTNB, absorbance at 405 nm); type: biochemical; conditions: not given
T1 construct: purified from human serum; purchased Complement Technology, Inc; host or cells: human serum (natural protein, not recombinant)
Procedure: Example 44. Human Factor D Assay
Human Factor D (purified from human serum, Complement Technology, Inc.) at 80 nM final concentration was incubated with test compound at various concentrations for 5 minutes at room temperature in 50 mM Tris, 1M NaCl, pH 7.5. A synthetic substrate Z-L-Lys-SBzl and DTNB (Ellman's reagent) are added to final concentrations of 100 µM each. Absorbance at 405 nm (A405) was recorded at 30 second intervals for 30 minutes using a microplate spectrophotometer. IC50 values are calculated by nonlinear regression of complement Factor D reaction rates as a function of test compound concentration.

T1 sequence (P00746 26-253): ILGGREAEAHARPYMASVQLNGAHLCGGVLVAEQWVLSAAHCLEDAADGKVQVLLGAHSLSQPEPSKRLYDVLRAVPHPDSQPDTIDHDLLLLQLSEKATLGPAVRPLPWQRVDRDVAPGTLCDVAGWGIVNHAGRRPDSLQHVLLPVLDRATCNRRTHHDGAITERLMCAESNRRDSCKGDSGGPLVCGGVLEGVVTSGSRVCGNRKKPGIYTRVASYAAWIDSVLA

Compound | IC50
CCCCOP(=O)(OCCCC)c1ccc2c(C(C)=O)cn(CC(=O)N3C[C@H](F)C[C@H]3C(=O)NCc3cccc(Cl)c3F)c2c1 [Compound 20, dibutyl 3-acetyl-1-(2-((2S,4R)-2-(3-chloro-2-fluorobenzylcarbamoyl)-4-fluoropyrrolidin-1-yl)-2-oxoethyl)-1H-indol-6-ylphosphonate] | < 1 µM
O=C(NCc1cccc(Cl)c1F)[C@@H]1C[C@@H](F)CN1C(=O)Cn1cc(C(=O)C(F)(F)F)c2ccc(P(=O)(O)O)cc21 [Compound 32, 1-(2-((2S,4R)-2-(3-chloro-2-fluorobenzylcarbamoyl)-4-fluoropyrrolidin-1-yl)-2-oxoethyl)-3-(2,2,2-trifluoroacetyl)-1H-indol-6-ylphosphonic acid] | < 1 µM

same assay, conditions: Table 1; Human Factor D 80 nM, purified from human serum; substrate Z-L-Lys-SBzl; read-out: IC50

Compound | IC50
CCOP(=O)(OCC)c1ccc2c(c1)c(C(C)=O)cn2CC(=O)N1C[C@H](F)C[C@H]1C(=O)NCc1cccc(Cl)c1F [Compound 8, diethyl 3-acetyl-1-(2-((2S,4R)-2-(3-chloro-2-fluorobenzylcarbamoyl)-4-fluoropyrrolidin-1-yl)-2-oxoethyl)-1H-indol-5-ylphosphonate] | < 1 µM
CCOP(=O)(OCC)c1ccc2c(C(N)=O)nn(CC(=O)N3C[C@H](F)C[C@H]3C(=O)NCc3cccc(Cl)c3F)c2c1 [Compound 17, diethyl 3-carbamoyl-1-(2-((2S,4R)-2-(3-chloro-2-fluorobenzylcarbamoyl)-4-fluoropyrrolidin-1-yl)-2-oxoethyl)-1H-indazol-6-ylphosphonate] | < 1 µM
CC(=O)c1cn(CC(=O)N2C[C@H](F)C[C@H]2C(=O)NCc2cccc(Cl)c2F)c2cc(P(=O)(O)OCOC(=O)C(C)(C)C)ccc12 [Compound 28, ((3-acetyl-1-(2-((2S,4R)-2-(3-chloro-2-fluorobenzylcarbamoyl)-4-fluoropyrrolidin-1-yl)-2-oxoethyl)-1H-indol-6-yl)(hydroxy)phosphoryloxy) methyl pivalate] | < 1 µM
COC(=O)c1cn(CC(=O)N2C[C@H](F)C[C@H]2C(=O)NCc2cccc(Cl)c2F)c2cc(P(=O)(O)O)ccc12 [Compound 14, 1-(2-((2S,4R)-2-(3-chloro-2-fluorobenzylcarbamoyl)-4-fluoropyrrolidin-1-yl)-2-oxoethyl)-3-(methoxycarbonyl)-1H-indol-6-ylphosphonic acid] | < 1 µM
CC(=O)c1cn(CC(=O)N2C[C@H](F)C[C@H]2C(=O)NCc2cccc(Cl)c2F)c2cc(P(=O)(OCC(F)(F)F)OCC(F)(F)F)ccc12 [Compound 19, bis(2,2,2-trifluoroethyl) 3-acetyl-1-(2-((2S,4R)-2-(3-chloro-2-fluorobenzylcarbamoyl)-4-fluoropyrrolidin-1-yl)-2-oxoethyl)-1H-indol-6-ylphosphonate] | < 1 µM
CCOP(=O)(c1ccccc1)c1ccc2c(C(C)=O)cn(CC(=O)N3C[C@H](F)C[C@H]3C(=O)NCc3cccc(Cl)c3F)c2c1 (stereo partly drawn) [Compound 23, ethyl 3-acetyl-1-(2-((2S,4R)-2-(3-chloro-2-fluorobenzylcarbamoyl)-4-fluoropyrrolidin-1-yl)-2-oxoethyl)-1H-indol-6-yl(phenyl)phosphinate] | < 1 µM
CCOP(=O)(OCC)c1ccc2c(C(N)=O)cn(CC(=O)N3C[C@H](F)C[C@H]3C(=O)NCc3cccc(Cl)c3F)c2c1 [Compound 15, diethyl 3-carbamoyl-1-(2-((2S,4R)-2-(3-chloro-2-fluorobenzylcarbamoyl)-4-fluoropyrrolidin-1-yl)-2-oxoethyl)-1H-indol-6-ylphosphonate] | < 1 µM
CCOP(=O)(O)c1ccc2c(c1)c(C(C)=O)cn2CC(=O)N1C[C@H](F)C[C@H]1C(=O)NCc1cccc(Cl)c1F [Compound 9, ethyl hydrogen 3-acetyl-1-(2-((2S,4R)-2-(3-chloro-2-fluorobenzylcarbamoyl)-4-fluoropyrrolidin-1-yl)-2-oxoethyl)-1H-indol-5-ylphosphonate] | > 10 µM
CCP(=O)(O)c1ccc2c(C(C)=O)cn(CC(=O)N3C[C@H](F)C[C@H]3C(=O)NCc3cccc(Cl)c3F)c2c1 [Compound 27, 3-acetyl-1-(2-((2S,4R)-2-(3-chloro-2-fluorobenzylcarbamoyl)-4-fluoropyrrolidin-1-yl)-2-oxoethyl)-1H-indol-6-yl(ethyl)phosphinic acid] | < 1 µM
CCOP(=O)(OCC)c1ccc2c(C(C)=O)cn(CC(=O)N3C[C@H](F)C[C@H]3C(=O)NCc3cccc(Cl)c3F)c2c1 [Compound 1, diethyl 3-acetyl-1-(2-((2S,4R)-2-(3-chloro-2-fluorobenzylcarbamoyl)-4-fluoropyrrolidin-1-yl)-2-oxoethyl)-1H-indol-6-ylphosphonate] | < 1 µM
CCOP(=O)(OCC)c1cc2c(cc1F)c(C(C)=O)cn2CC(=O)N1C[C@H](F)C[C@H]1C(=O)NCc1cccc(Cl)c1F [Compound 30, diethyl 3-acetyl-1-(2-((2S,4R)-2-(3-chloro-2-fluorobenzylcarbamoyl)-4-fluoropyrrolidin-1-yl)-2-oxoethyl)-5-fluoro-1H-indol-6-ylphosphonate] | < 1 µM
CCOP(=O)(CC)c1ccc2c(C(C)=O)cn(CC(=O)N3C[C@H](F)C[C@H]3C(=O)NCc3cccc(Cl)c3F)c2c1 (stereo partly drawn) [Compound 24, ethyl 3-acetyl-1-(2-((2S,4R)-2-(3-chloro-2-fluorobenzylcarbamoyl)-4-fluoropyrrolidin-1-yl)-2-oxoethyl)-1H-indol-6-yl(ethyl)phosphinate] | < 1 µM
CCOC(=O)c1nn(CC(=O)N2C[C@H](F)C[C@H]2C(=O)NCc2cccc(Cl)c2F)c2cc(P(=O)(OCC)OCC)ccc12 [Compound 11, ethyl 1-(2-((2S,4R)-2-(3-chloro-2-fluorobenzylcarbamoyl)-4-fluoropyrrolidin-1-yl)-2-oxoethyl)-6-(diethoxyphosphoryl)-1H-indazole-3-carboxylate] | > 10 µM
CC(=O)c1cn(CC(=O)N2C[C@H](F)C[C@H]2C(=O)NCc2cccc(Cl)c2F)c2cc(P(=O)(OCOC(=O)C(C)(C)C)OCOC(=O)C(C)(C)C)ccc12 [Compound 26, ((3-acetyl-1-(2-((2S,4R)-2-(3-chloro-2-fluorobenzylcarbamoyl)-4-fluoropyrrolidin-1-yl)-2-oxoethyl)-1H-indol-6-yl)phosphoryl)bis(oxy)bis (methylene) bis(2,2-dimethylpropanoate)] | < 1 µM
CC(=O)c1cn(CC(=O)N2C[C@H](F)C[C@H]2C(=O)NCc2cccc(Cl)c2F)c2cc(P(=O)(O)O)c(F)cc12 [Compound 31, 3-acetyl-1-(2-((2S,4R)-2-(3-chloro-2-fluorobenzylcarbamoyl)-4-fluoropyrrolidin-1-yl)-2-oxoethyl)-5-fluoro-1H-indol-6-ylphosphonic acid] | < 1 µM
CCCCOP(=O)(O)c1ccc2c(C(C)=O)cn(CC(=O)N3C[C@H](F)C[C@H]3C(=O)NCc3cccc(Cl)c3F)c2c1 [Compound 21, butyl hydrogen 3-acetyl-1-(2-((2S,4R)-2-(3-chloro-2-fluorobenzylcarbamoyl)-4-fluoropyrrolidin-1-yl)-2-oxoethyl)-1H-indol-6-ylphosphonate] | < 1 µM

same assay, conditions: Table 3; Human Factor D 80 nM, purified from human serum; substrate Z-L-Lys-SBzl; read-out: IC50 (Stars)

Compound | IC50
CCOP(=O)(OCC)c1ccc2c(c1)c(C(N)=O)cn2CC(=O)N1[C@@H]2CC[C@@H](C2)[C@H]1C(=O)Nc1cccc(C)n1 [Compound 102, diethyl (3-carbamoyl-1-(2-((1R,3S,4S)-3-((6-methylpyridin-2-yl)carbamoyl)-2-azabicyclo[2.2.1]heptan-2-yl)-2-oxoethyl)-1H-indol-5-yl)phosphonate] | > 10 µM
CCOP(=O)(OCC)c1ccc2c(c1)c(C(C)=O)cn2CC(=O)N1C[C@H](F)C[C@H]1C(=O)NCCCCc1ccccc1 [Compound 86, diethyl (3-acetyl-1-(2-((2S,4R)-4-fluoro-2-((4-phenylbutyl)carbamoyl)pyrrolidin-1-yl)-2-oxoethyl)-1H-indol-5-yl)phosphonate] | > 10 µM
CCOP(=O)(OCC)c1ccc2c(c1)c(C(C)=O)cn2CC(=O)N1C[C@H](F)C[C@H]1C(=O)NCCCc1ccccc1 [Compound 82, diethyl (3-acetyl-1-(2-((2S,4R)-4-fluoro-2-((3-phenylpropyl)carbamoyl)pyrrolidin-1-yl)-2-oxoethyl)-1H-indol-5-yl)phosphonate] | > 10 µM
CC(=O)c1cn(CC(=O)N2C[C@H](F)C[C@H]2C(=O)NCCCCc2ccccc2)c2ccc(P(=O)(O)O)cc12 [Compound 87, (3-acetyl-1-(2-((2S,4R)-4-fluoro-2-((4-phenylbutyl)carbamoyl)pyrrolidin-1-yl)-2-oxoethyl)-1H-indol-5-yl)phosphonic acid] | > 10 µM
CC(=O)c1nn(CC(=O)N2C[C@H](F)C[C@H]2C(=O)Nc2cccc(Br)n2)c2cc(P(=O)(O)O)ccc12 [Compound 105, (3-acetyl-1-(2-((2S,4R)-2-((6-bromopyridin-2-yl)carbamoyl)-4-fluoropyrrolidin-1-yl)-2-oxoethyl)-1H-indazol-6-yl)phosphonic acid] | < 1 µM
CC(=O)c1cn(CC(=O)N2C[C@H](F)C[C@H]2C(=O)NCCCc2ccccc2)c2ccc(P(=O)(O)O)cc12 [Compound 83, (3-acetyl-1-(2-((2S,4R)-4-fluoro-2-((3-phenylpropyl)carbamoyl)pyrrolidin-1-yl)-2-oxoethyl)-1H-indol-5-yl)phosphonic acid] | > 10 µM
CCOP(=O)(OCC)c1ccc2c(c1)c(C(C)=O)cn2CC(=O)N1CC[C@H]1C(=O)Nc1cccc(C)n1 [Compound 100, (S)-diethyl (3-acetyl-1-(2-(2-((6-methylpyridin-2-yl)carbamoyl)azetidin-1-yl)-2-oxoethyl)-1H-indol-5-yl)phosphonate] | > 10 µM
CCOP(=O)(OCC)c1nc2c(s1)c(C(N)=O)nn2CC(=O)N1C[C@H](F)C[C@H]1C(=O)Nc1cccc(C)n1 [Compound 146] | > 10 µM

— patent US10000516B2 (priority 2015, dated 2018)
